Key:
[1] = target: T1, Glyoxal oxidase (Phanerodontia chrysosporium, UniProt Q01772); conditions: cited from earlier work
T1 sequence (Q01772 23-559): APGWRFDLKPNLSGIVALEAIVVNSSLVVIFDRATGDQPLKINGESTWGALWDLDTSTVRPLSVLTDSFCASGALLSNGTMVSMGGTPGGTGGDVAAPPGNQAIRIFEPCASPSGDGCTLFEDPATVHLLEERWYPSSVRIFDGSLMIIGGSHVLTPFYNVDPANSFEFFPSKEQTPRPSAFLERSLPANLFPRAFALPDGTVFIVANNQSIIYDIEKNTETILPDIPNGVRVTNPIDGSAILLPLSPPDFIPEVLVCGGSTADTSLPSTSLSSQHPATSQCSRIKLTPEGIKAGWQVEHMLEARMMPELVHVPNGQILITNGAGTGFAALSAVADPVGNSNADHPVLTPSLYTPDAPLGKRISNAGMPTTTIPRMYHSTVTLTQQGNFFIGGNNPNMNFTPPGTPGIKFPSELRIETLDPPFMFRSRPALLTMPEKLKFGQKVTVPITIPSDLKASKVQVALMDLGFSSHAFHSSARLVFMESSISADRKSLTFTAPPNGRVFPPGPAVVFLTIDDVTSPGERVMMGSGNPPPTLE

[2] = target: T1, Glyoxal oxidase; assay: Effect of PAM reductant on glyoxal oxidase activity and glyoxylate assays; type: biochemical; parameters: Dr. James Whittaker, OGI School of Science and Engineering (gift); conditions: reductant for PAM catalysis
Excerpt: Application of the assays of the invention to the quantification of PAM-produced glyoxylate required two alterations of the PAM assay, as well as one change to the common glycolate oxidase assay which has previously been mentioned. Without these specific alterations the assays would be rendered non-stoichiometric and produce anomalous data. First, to address the changes to the PAM assay, a new method for enzyme protection due to hydroxyl radical formation produced during catalysis was necessary as the use of catalase has previously been the method of choice. Catalase catalyzes the disproportionate reaction of H2O2 to H2O and O2, and removal of hydrogen peroxide is detrimental to the assay methods. […] Second, a reducing agent is necessary for the PAM catalysis. Ascorbate is frequently used in the art for this purpose. […] As an alternative to the foregoing, ascorbate may be used in the PAM-catalyzed reaction, but later removed (e.g., by deactivating with ascorbate oxidase) prior to assaying for glyoxylate.

[3] = target: T2, peptidylglycine α-amidating monooxygenase (Rattus norvegicus, UniProt P14925); assay: PAM treatment of hippurate: benzamide by HPLC, glyoxylate by malate synthase/malate dehydrogenase/MTS/PMS system; type: biochemical; conditions: for Benzamide Produced / Glyoxylate Produced: PAM added to 2.5 mM hippurate
T2 sequence (P14925 36-976): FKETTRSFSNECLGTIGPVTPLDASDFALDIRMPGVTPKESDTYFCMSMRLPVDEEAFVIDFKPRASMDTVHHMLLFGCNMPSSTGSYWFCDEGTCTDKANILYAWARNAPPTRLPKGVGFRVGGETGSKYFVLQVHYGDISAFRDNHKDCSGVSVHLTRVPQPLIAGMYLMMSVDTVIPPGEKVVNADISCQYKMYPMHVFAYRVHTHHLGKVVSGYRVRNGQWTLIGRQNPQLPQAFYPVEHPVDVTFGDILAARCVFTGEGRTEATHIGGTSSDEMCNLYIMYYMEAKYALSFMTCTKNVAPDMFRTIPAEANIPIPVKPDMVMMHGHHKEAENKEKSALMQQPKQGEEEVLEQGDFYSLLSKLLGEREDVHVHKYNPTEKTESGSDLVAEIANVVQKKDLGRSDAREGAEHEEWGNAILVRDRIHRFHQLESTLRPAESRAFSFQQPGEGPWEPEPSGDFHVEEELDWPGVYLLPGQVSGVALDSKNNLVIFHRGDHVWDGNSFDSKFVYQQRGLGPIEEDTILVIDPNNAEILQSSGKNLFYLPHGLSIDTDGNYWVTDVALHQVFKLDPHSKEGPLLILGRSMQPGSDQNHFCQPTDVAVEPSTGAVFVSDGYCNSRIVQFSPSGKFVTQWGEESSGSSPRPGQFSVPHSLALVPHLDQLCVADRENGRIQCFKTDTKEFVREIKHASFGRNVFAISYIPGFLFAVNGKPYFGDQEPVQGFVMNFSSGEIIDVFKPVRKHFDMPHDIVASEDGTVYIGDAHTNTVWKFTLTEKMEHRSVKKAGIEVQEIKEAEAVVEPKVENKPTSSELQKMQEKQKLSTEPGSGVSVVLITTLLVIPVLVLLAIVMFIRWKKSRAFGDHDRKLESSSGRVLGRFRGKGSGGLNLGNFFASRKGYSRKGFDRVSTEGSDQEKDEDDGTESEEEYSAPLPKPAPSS
Protocol: Hippurate (N-benzoylglycine, C6H5-CO—NH—CH2-COO^−) is a PAM substrate that is oxidatively converted to benzamide and glyoxylate. […] At 10 min intervals over a period of 110 minutes, 45 μl aliquots may be removed and added to 10 μl of 6% (v/v) trifluoroacetic acid to terminate the reaction. Percent conversion of hippurate to benzamide may be determined at each time interval by reverse-phase HPLC.
Approximately 20 nanomoles of glyoxylate may be removed from the HPLC vials and added to a 0.9 ml solution that contain necessary components for the glyoxylate assay excluding the enzyme couple and MTS/PMS. Ascorbate may be eliminated from all samples, prior to glyoxylate determination, with 10 min incubation in the presence of 12 units of ascorbate oxidase at 37° C. Following ascorbate removal the addition of 100 μl enzyme couple and PMS/MTS may bring the assay to a final volume of 1 ml which contains 100 mM TEA-HC1 pH 7.8, 10 MM MgCl2, 400 μM acetyl-CoA, 500 μM NAD^+, 6 U/ml malate synthase, 6 U/ml malate dehydrogenase, and 12 units ascorbate oxidase. The glyoxylate concentration may be determined by measuring the absorbance increase at 490 nm after incubation at 37° C. for 1 hr. A control for this experiment was performed at each time point, and contained no hippurate.

[4] = target: T3, PAM (Rattus norvegicus, UniProt P14925); assay: PAM dependent conversion of N-dansyl-Tyr-Val-Gly verified by RP-HPLC; type: biochemical; conditions: 20 μM substrate, PAM 15 U/L, 1.0 mM catechol, one hour at 37° C.
T3 construct: Unigene Labs, Inc. (Fairfield, N.J.), gift
T3 sequence (P14925 36-715 isoform P14925-2 limits assumed): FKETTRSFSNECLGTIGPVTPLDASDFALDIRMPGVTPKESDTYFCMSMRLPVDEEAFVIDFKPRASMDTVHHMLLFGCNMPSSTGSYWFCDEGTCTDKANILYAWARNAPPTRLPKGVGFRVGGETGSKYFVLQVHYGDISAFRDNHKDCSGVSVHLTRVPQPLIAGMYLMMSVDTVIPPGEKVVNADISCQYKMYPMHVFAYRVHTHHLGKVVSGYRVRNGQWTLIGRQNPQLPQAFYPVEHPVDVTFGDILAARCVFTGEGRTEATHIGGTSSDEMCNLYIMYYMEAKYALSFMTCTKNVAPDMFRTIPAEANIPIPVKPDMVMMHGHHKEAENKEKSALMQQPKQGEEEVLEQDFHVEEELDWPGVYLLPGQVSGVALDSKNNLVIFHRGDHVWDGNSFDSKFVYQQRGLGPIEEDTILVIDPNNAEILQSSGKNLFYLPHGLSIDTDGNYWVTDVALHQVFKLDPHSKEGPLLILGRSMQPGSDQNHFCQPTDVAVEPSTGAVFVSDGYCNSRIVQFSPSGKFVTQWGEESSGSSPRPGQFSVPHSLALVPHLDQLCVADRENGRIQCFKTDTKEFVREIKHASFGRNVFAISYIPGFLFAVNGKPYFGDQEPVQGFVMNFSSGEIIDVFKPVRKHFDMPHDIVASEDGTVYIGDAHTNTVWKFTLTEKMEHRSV
Protocol: Glyoxylate production was initiated by the addition of PAM (15 U/L) to a solution containing 40 mM MES/NaOH pH 6.0, 10 U/ml HRP, 1.0 mM catechol, 0.5 μM CU(SO4), 20 μM dansyl-Tyr-Val-Gly, the reaction proceeded for one hour at 37° C. […] The complete PAM dependent conversion of 20 μM N-dansyl-Tyr-Val-Gly to N-dansyl-Tyr-Val-NH2 and glyoxylate was verified by RP-HPLC to quantify the exact concentrations of [dansyl-Tyr-Val-NH2] and [glyoxylate] (100% conversion, 20 μM N-dansyl-Tyr-Val-NH2 and glyoxylate). Aliquots of the PAM produced glyoxylate pertaining to variable concentrations (0.3, 0.7, 1.6, and 2.3, μM) of were utilized for analysis by the GLOX assay. Aliquots of glyoxylate were added to a solution of 50 mM sodium phosphate pH 6.0, 50 μM Amplex red, at HRP (1 U/ml) and a final concentration of 0.4 mg/ml GLOX. All samples were incubated for 1 hour at 37° C. for one hour.
Glyoxylate production was initiated by the addition of PAM (15 U/L) to a solution containing 40 mM MES/NaOH pH 6.0, 10 U/ml HRP, 1.0 mM catechol, 0.5 μM Cu(SO4), 20 μM dansyl-Tyr-Val-Gly, the reaction proceeded for one hour at 37° C. The PAM dependent conversion of 20 μM N-dansyl-Tyr-Val-Gly to N-dansyl-Tyr-Val-NH2 and glyoxylate was verified to be 100% by a RP-HPLC assay, to ensure a 20 μM PAM produced glyoxylate solution. […]

CC(=O)C=O [Methylglyoxal]
Km [1]: 640 µM

Oc1ccccc1O [catechol]
inhibition of the enzyme activity of glyoxal oxidase and of the spectrophotometric, fluorescent and luminescent assays [2]: not an inhibitor

O=CC(=O)O [glyoxylic acid]
Km [1]: 2500 µM | kcat/KM ratio, activity compared to methylglyoxal [1]: 12.4%

O=C(O)CNC(=O)c1ccccc1 [hippurate, N-benzoylglycine]
[Glyoxylate]/[Benzamide] ([3]; Time 40): 1.2 | Benzamide Produced ([3]; Time 40): 0.58 mM | Glyoxylate Produced ([3]; Time 40): 0.69 mM | [Glyoxylate]/[Benzamide] ([3]; Time 50): 0.96 | Benzamide Produced ([3]; Time 50): 0.70 mM | Glyoxylate Produced ([3]; Time 50): 0.67 mM | [Glyoxylate]/[Benzamide] ([3]; Time 60): 0.89 | Benzamide Produced ([3]; Time 60): 0.80 mM | Glyoxylate Produced ([3]; Time 60): 0.71 mM | [Glyoxylate]/[Benzamide] ([3]; Time 70): 0.83 | Benzamide Produced ([3]; Time 70): 0.90 mM | Glyoxylate Produced ([3]; Time 70): 0.75 mM | [Glyoxylate]/[Benzamide] ([3]; Time 80): 0.79 | Benzamide Produced ([3]; Time 80): 0.98 mM | Glyoxylate Produced ([3]; Time 80): 0.77 mM | [Glyoxylate]/[Benzamide] ([3]; Time 90): 1.2 | Benzamide Produced ([3]; Time 90): 1.1 mM | Glyoxylate Produced ([3]; Time 90): 1.3 mM | [Glyoxylate]/[Benzamide] ([3]; Time 100): 1.1 | Benzamide Produced ([3]; Time 100): 1.2 mM | Glyoxylate Produced ([3]; Time 100): 1.3 mM | [Glyoxylate]/[Benzamide] ([3]; Time 110): 1.0 | Benzamide Produced ([3]; Time 110): 1.3 mM | Glyoxylate Produced ([3]; Time 110): 1.3 mM

N-dansyl-Tyr-Val-Gly
PAM dependent conversion to N-dansyl-Tyr-Val-NH2 and glyoxylate [4]: 100%

Reference: patent publication US20080227134A9, “Glyoxylate assays and their use of inden tifying natural amidated compounds” (priority 2005, published 2008)
